According to patent US20250387481A1, “PRE-TREATED T CELLS FOR USE AS A MEDICAMENT” (STICHTING HET NEDERLANDS KANKER INSTITUUT-ANTONI VAN …, priority 2022, published 2025):

Tested on: KB1P tumors
Experiment: Drug treatment in vivo of mice bearing KB1P tumors
Set-up: species or system mouse
Method: For tumor generation, tumor organoids were transplanted into the 4th mammary fat pad of FVB female mice. Rimadyl (0.067 mg/ml, Zoetis) was administered to mice in the drinking water from 24 h before surgery and for 48 h after surgery. Mice were also treated with temgesic (0.1 mg/kg, Indivior Europe Limited), 1 hr before and 12 h after surgery. Mice were anesthetized with isoflurane (2%, v/v) and their eyes were covered with duratears (Alcon). About 100,000 single cells derived from KB1P organoids or 200,000 single cells derived from MMTV-PyMT organoids were injected in 30 μl of BME (Amsbio, Cat. No. 3533-005-02). Mice were weighed and monitored three times a week after transplantation of tumor organoids. Tumor volume was measured with calipers three times weekly. The researcher performing the measurement of tumor volume was blinded to the treatment group. For survival experiments, endpoint was reached when tumor reached 2000 mm3. For specific experiments, reference is made to the schematic representations of treatment timelines depicted in the figures.
Once tumors were established and reached a size of ˜7×7 mm, mice were randomized into treatment groups with the following drug dosages and timeline: • AC+T treatment: every 14 days, cyclophosphamide (144 mg/kg, administered via intraperitoneal injection), doxorubicin (5 mg/kg, administered via intravenous injection) and docetaxel (25 mg/kg, resuspended in acetonitrile containing 0.1% acetic acid, administered via intravenous injection). Doxorubicin hydrochloride (Adriamycin) and cyclophosphamide (C), when combined in a treatment, are herein referred to as “AC”. Taxanes, as broadly described and disclosed herein, are referred to as “T”. In one example, said taxane is docetaxel. • AC treatment: every 14 days, cyclophosphamide (144 mg/kg, administered via intraperitoneal injection) and doxorubicin (5 mg/kg administered via intravenous injection). • Docetaxel treatment: every 14 days, docetaxel (25 mg/kg, re-suspended in acetonitrile containing 0.1% acetic acid and administered via intravenous injections). • Vehicle control for chemotherapy: every 14 days, the same volume of the vehicle as the corresponding chemotherapy was administered to mice. […]

## CC(=O)O[C@@]12CO[C@@H]1C[C@H](O)[C@@]1(C)C(=O)[C@H](O)C3=C(C)[C@@H](OC(=O)[C@H](O)[C@@H](NC(=O)OC(C)(C)C)c4ccccc4)C[C@@](O)([C@@H](OC(=O)c4ccccc4)[C@H]21)C3(C)C [docetaxel]
Depletion of CD4 alone, CD8 alone or both
  anti-tumor effects of docetaxel (survival) upon T cell depletion: abrogated the anti-tumor effects
Docetaxel 25 mg/kg intravenous every 14 days vs vehicle
  tumor outgrowth: delayed tumor outgrowth
Docetaxel vs vehicle
  CD4 and CD8 T cell infiltration (immunohistochemistry): enhanced CD4 and CD8 T cell infiltration
Tumors isolated 24 h after the second docetaxel administration
  accumulation of mitotic figures in tumors: did not observe an accumulation of mitotic figures
